The values that follow come from publication PMC9666886, “Molecular characteristics of glutathione transferase gene family in a neglect medical Spirometra tapeworm” (Frontiers in Veterinary Science, 2022).

In series [1] the target is T1, rSmGST (Spirometra mansoni, UniProt I1SZ68). The experiment in a line: biochemical. Format: biochemical. Particulars: for Ki / IC50: 4 mM GSH; for Ki: CDNB varied 0.20 to 2.0 mM, secondary plot of 1/v intercept vs inhibitor concentration; for inhibition pattern: CDNB as the variable substrate, double-reciprocal plots; for maximal slope at IC50 of fractional velocity vs log inhibitor concentration: Supplementary Figure S4; for IC50: concentration giving 50% inhibition, percent residual activity vs log inhibitor concentration, 1 mM CDNB, pH 6.5. The protocol: (§1) The effect of temperature on rSmGST was carried out by keeping the enzyme at different temperatures (15, 20, 25, 30, 35, 40, 45, 50, and 55°C) for 10 min, and then enzyme activity was assayed immediately. The effect of pH on rSmGST was carried out using the phosphate buffer having different pH from 5.5 to 10. Activity of enzyme was determined in 100 mM potassium phosphate buffer (pH 6.5) with 1 mM l-chloro-2,4-dinitrobenzene (CDNB) and 4 mM GSH as substrates by following the change in absorbance at 340 nm (ε 1/4 9.6 mM^−1. cm^−1) for 1 min at 30°C as previously described ([28]). In the kinetic mechanism analysis of rSmGST, double reciprocal Lineweaver-Burk plot was used to graphically determine the apparent Km and Vmax values. Inhibition studies were performed according to the procedure of Tahir et al. ([29]). Different range of concentrations of Rose Bengal (RB, 0.1–1000 μM), Cibacron Blue (CB, 0.1–1000 μM), Bromosulfophtalein (BSP, 0.1–500 μM), and Tripheniltin chloride (TPT, 0.1–100 μM) were used as inhibitors respectively. The concentration of inhibitor giving 50% inhibition (IC50) was obtained by plotting the percent of residual activity vs the log of inhibitor concentration. The Ki values for each rSmGST inhibitor were determined according to methods described in Nava et al. ([30]). To ascertain which type of reversible enzyme inhibition occurs, initial-velocity enzyme reactions in the presence of the inhibitors were performed. The rSmGST was preincubated for a few seconds in the assay buffer with 4 mM GSH and inhibitor at the corresponding concentration (CB, 10, 30 μM; TPT, 4, 8 μM; BSP, 20, 60 μM and RB, 20, 60 μM). The reaction was initiated by addition of one of a range of 0.20 to 2.0 mM of different concentrations of CDNB. A set of reactions under identical conditions was performed for each inhibitor concentration and for the non-inhibitor control.

Series [2] has as its target T1, rSmGST. Briefly: Enzyme kinetics of rSmGST with the substrates GSH and CDNB (Lineweaver-Burk plot). It counts as biochemical. The note with it: for saturation point (substrate concentration): no further increase in enzyme activity above this concentration. The protocol: as §1
Substrate in series [3]: N[C@@H](CCC(=O)N[C@@H](CS)C(=O)NCC(=O)O)C(=O)O
The description is as above. It counts as biochemical, Spirometra mansoni. Particulars: other: Lineweaver-Burk plot; GSH 0.5–5.0 mM or CDNB 0.2–2.0 mM as varied substrate; pH 6.5. As to the method:
as §1, with “To ascertain which type of reversible enzyme inhibition occurs, initial-velocity enzyme reactions in the presence of the inhibitors were performed. The rSmGST was preincubated for a few seconds in the assay buffer with 4 mM GSH and inhibitor at the corresponding concentration (CB, 10, 30 μM; TPT, 4, 8 μM; BSP, 20, 60 μM and RB, 20, 60 μM). The reaction was initiated by addition of one of a range of 0.20 to 2.0 mM of different concentrations of CDNB. A set of reactions under identical conditions was performed for each inhibitor concentration and for the non-inhibitor control.” left out

Setting [4] is: Lineweaver-Burk plot, GSH 0.5–5.0 mM or CDNB 0.2–2.0 mM as varied substrate.

On to `[Cl][Sn]([c]1ccccc1)([c]1ccccc1)[c]1ccccc1` [Tripheniltin chloride], for which, in series [1], the Ki turned out to be 11.7 µM, the inhibition pattern result was “non-competitive”, the “maximal slope at IC50 of fractional velocity vs log inhibitor concentration” value is recorded as −0.59 and the concentration for half-maximal inhibition (IC50) stood at 12.1 µM.
Consider `O=[N+]([O-])c1ccc(Cl)c([N+](=O)[O-])c1` [CDNB, 1-chloro-2,4-dinitrobenzene], for which, in series [2], the “specific activity of rSmGST toward substrate” value was found to be 3.12 µmol/min/mg and the “saturation point (substrate concentration)” value stood at 1.6 mM. In series [2] (setting [4]), the Km is 6.29 mM and the Vmax amounted to 10.120 µmol/min/mL.
On to `N[C@@H](CCC(=O)N[C@@H](CS)C(=O)NCC(=O)O)C(=O)O` [GSH, glutathione], for which the “saturation point (substrate concentration)” value in series [2] turned out to be 4.0 mM.
As to `O=C1OC(c2ccc(O)c(S(=O)(=O)O)c2)(c2ccc(O)c(S(=O)(=O)O)c2)c2c(Br)c(Br)c(Br)c(Br)c21` [Bromosulfophtalein], in series [1], the inhibition constant Ki was 122 µM, the inhibition pattern entry is recorded as “non-competitive”, the “maximal slope at IC50 of fractional velocity vs log inhibitor concentration” value is given as −0.27 and the IC50 worked out at 290 µM.
The corresponding values for `O=C([O-])c1c(Cl)c(Cl)c(Cl)c(Cl)c1-c1c2cc(I)c(=O)c(I)c-2oc2c(I)c([O-])c(I)cc12.[Na+].[Na+]` [Rose Bengal] are 57.6 µM, “uncompetitive”, −0.63 and 34 µM.
The corresponding values for `Nc1c(S(=O)(=O)O)cc(Nc2ccc(Nc3nc(Cl)nc(Nc4ccccc4S(=O)(=O)O)n3)c(S(=O)(=O)O)c2)c2c1C(=O)c1ccccc1C2=O` [Cibacron Blue] are 20.1 µM, “uncompetitive”, −0.51 and 11.7 µM.

B1: rSmGST (Spirometra erinaceieuropaei) (protein)
chain: MGSLPVLEYWKIRGLAQAIRLLFHYLGQEYVEELYEAGGPPDFSREPWLKHKFNKGLDFPNLPYLIDDGFKITQSGAILEYVADKHGMLPTSAKERAVLHMLQNELSGFRASYGRLVYNPDFSKLKQGFLDELPQKLRLWSNYLGDKQWLTGDKIQYPDFNLYDFLDALQNLEPSCLKDFPNLQRYMKRFEDLDKIKEFQKSDAYIAHPFNNTVAAWRGDA
As to B1, in series [3], the Km was 0.78 mM and the Vmax was determined as 1.146 µmol/min/mL.
